In patent US20240239775A1, “FXR REGULATOR, PREPARATION METHOD THEREFOR, PHARMACEUTICAL COMPOSITION THEREOF AND USE THEREOF” (QINGDAO RUIJI MEDICAL TECHNOLOGY CO., LTD., priority 2021, published 2024):

Target: T1, FXR (Homo sapiens, UniProt Q96RI1)
T1 construct: 5 μL of 20 nM FXR-LBD Complete Coregulator buffer G; purchased ThermoFisher PV4833
T1 sequence (Q96RI1 262-486 limits assumed): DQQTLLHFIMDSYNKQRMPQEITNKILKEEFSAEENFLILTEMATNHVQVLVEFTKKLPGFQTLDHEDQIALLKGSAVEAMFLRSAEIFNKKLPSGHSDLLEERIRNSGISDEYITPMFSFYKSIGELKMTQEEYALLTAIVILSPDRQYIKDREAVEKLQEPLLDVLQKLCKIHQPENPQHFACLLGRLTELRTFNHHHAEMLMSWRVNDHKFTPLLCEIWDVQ
Experiment: FXR antagonist screening by TR-FRET (LanthaScreen TR-FRET FXR co-activation assay kit)
Assay type: biochemical
Conditions: Table 1.1, FXR antagonistic activity; TR-FRET with CDCA; geometric means of at least two independent runs
Procedure, shortened: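 FXR-LBD (20 nM working solution) mixed with compound, CDCA (200 μM working solution) as agonist, Fluorescein-SRC2-2 and Tb-anti-GST antibody in Coregulator buffer G; 10 h at room temperature. Coactivator recruitment read by TR-FRET, triplicate wells.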

Compound: CCOC(=O)c1oc2ccc(S(=O)(=O)N(CCc3ccccc3)Cc3cccc4cccnc34)cc2c1C [Example M4-44, ethyl 3-methyl-5-(N-(quinolin-8-ylmethyl)-N-phenethylsulfamoyl)benzofuran-2-carboxylate]
- IC50: 50 to 100 µM

Compound: CCOC(=O)c1oc2ccc(S(=O)(=O)N(CCc3ccccc3)Cc3ccc4ccccc4c3)cc2c1C [Example M4-45, ethyl 3-methyl-5-(N-(naphthalen-2-ylmethyl)-N-phenethylsulfamoyl)benzofuran-2-carboxylate]
- IC50: 50 to 100 µM

Compound: CCOC(=O)c1oc2ccc(S(=O)(=O)N(CCc3ccccc3)Cc3c(F)cccc3F)cc2c1C [Example M4-46, ethyl 3-methyl-5-(N-(2,6-difluorobenzyl)-N-phenethylsulfamoyl)benzofuran-2-carboxylate]
- IC50: 50 to 100 µM

Compound: CCOC(=O)c1oc2ccc(S(=O)(=O)N(CCc3ccccc3)Cc3c(F)cccc3Cl)cc2c1C [Example M4-47, ethyl 3-methyl-5-(N-(2-fluoro-6-chlorobenzyl)-N-phenethylsulfamoyl)benzofuran-2-carboxylate]
- IC50: 50 to 100 µM

Compound: CCOC(=O)c1oc2ccc(S(=O)(=O)N(CCc3ccccc3)Cc3c(F)cccc3C(F)(F)F)cc2c1C [Example M4-48, ethyl 3-methyl-5-(N-(2-fluoro-6-(trifluoromethyl)benzyl)-N-phenethylsulfamoyl)benzofuran-2-carboxylate]
- IC50: 50 to 100 µM

Compound: CCOC(=O)c1oc2ccc(S(=O)(=O)N(CCc3ccccc3)Cc3c(Cl)cccc3Cl)cc2c1C [Example M4-49, ethyl 3-methyl-5-(N-(2,6-dichlorobenzyl)-N-phenethylsulfamoyl)benzofuran-2-carboxylate]
- IC50: 50 to 100 µM

Compound: CCOC(=O)c1oc2ccc(S(=O)(=O)N(CCc3ccccc3)Cc3c(C)cccc3C)cc2c1C [Example M4-50, ethyl 3-methyl-5-(N-(2,6-dimethylbenzyl)-N-phenethylsulfamoyl)benzofuran-2-carboxylate]
- IC50: 50 to 100 µM

Compound: CCOC(=O)c1oc2ccc(S(=O)(=O)N(CCc3ccccc3)Cc3ccc(F)cc3F)cc2c1C [Example M4-51, ethyl 3-methyl-5-(N-(2,4-difluorobenzyl)-N-phenethylsulfamoyl)benzofuran-2-carboxylate]
- IC50: 50 to 100 µM

Compound: CCOC(=O)c1oc2ccc(S(=O)(=O)N(CCc3ccccc3)Cc3ccc(Cl)cc3F)cc2c1C [Example M4-52, ethyl 3-methyl-5-(N-(2-fluoro-4-chlorobenzyl)-N-phenethylsulfamoyl)benzofuran-2-carboxylate]
- IC50: 50 to 100 µM

Compound: CCOC(=O)c1oc2ccc(S(=O)(=O)N(CCc3ccccc3)Cc3ccc(Br)cc3F)cc2c1C [Example M4-53, ethyl 3-methyl-5-(N-(2-fluoro-4-bromobenzyl)-N-phenethylsulfamoyl)benzofuran-2-carboxylate]
- IC50: 50 to 100 µM

Compound: CCOC(=O)c1oc2ccc(S(=O)(=O)N(CCc3ccccc3)Cc3ccc(C#N)cc3F)cc2c1C [Example M4-54, ethyl 3-methyl-5-(N-(2-fluoro-4-cyanobenzyl)-N-phenethylsulfamoyl)benzofuran-2-carboxylate]
- IC50: 50 to 100 µM

Compound: CCOC(=O)c1oc2ccc(S(=O)(=O)N(CCc3ccccc3)Cc3ccc(C(F)(F)F)cc3F)cc2c1C [Example M4-55, ethyl 3-methyl-5-(N-(2-fluoro-4-(trifluoromethyl)benzyl)-N-phenethylsulfamoyl)benzofuran-2-carboxylate]
- IC50: 50 to 100 µM

Compound: CCOC(=O)c1oc2ccc(S(=O)(=O)N(CCc3ccccc3)Cc3ccc(F)cc3Cl)cc2c1C [Example M4-56, ethyl 3-methyl-5-(N-(2-chloro-4-fluorobenzyl)-N-phenethylsulfamoyl)benzofuran-2-carboxylate]
- IC50: 50 to 100 µM

Compound: CCOC(=O)c1oc2ccc(S(=O)(=O)N(CCc3ccccc3)Cc3ccc(F)cc3C(F)(F)F)cc2c1C [Example M4-57, ethyl 3-methyl-5-(N-(2-(trifluoromethyl)-4-fluorobenzyl)-N-phenethylsulfamoyl)benzofuran-2-carboxylate]
- IC50: 50 to 100 µM

Compound: CCOC(=O)c1oc2ccc(S(=O)(=O)N(CCc3ccccc3)Cc3ccc(C(F)(F)F)cc3C(F)(F)F)cc2c1C [Example M4-58, ethyl 3-methyl-5-(N-(2,4-bis(trifluoromethyl)benzyl)-N-phenethylsulfamoyl)benzofuran-2-carboxylate]
- IC50: 50 to 100 µM

Compound: CCOC(=O)c1oc2ccc(S(=O)(=O)N(CCc3ccccc3)Cc3ccc(Br)cc3C(F)(F)F)cc2c1C [Example M4-59, ethyl 3-methyl-5-(N-(2-trifluoromethyl-4-bromobenzyl)-N-phenethylsulfamoyl)benzofuran-2-carboxylate]
- IC50: 50 to 100 µM

Compound: CCOC(=O)c1oc2ccc(S(=O)(=O)N(CCc3ccccc3)Cc3ccc(Cl)cc3Cl)cc2c1C [Example M4-60, ethyl 3-methyl-5-(N-(2,4-dichlorobenzyl)-N-phenethylsulfamoyl)benzofuran-2-carboxylate]
- IC50: 50 to 100 µM

Compound: CCOC(=O)c1oc2ccc(S(=O)(=O)N(CCc3ccccc3)Cc3cc(F)ccc3C)cc2c1C [Example M4-61, ethyl 3-methyl-5-(N-(2-methyl-5-fluorobenzyl)-N-phenethylsulfamoyl)benzofuran-2-carboxylate]
- IC50: 50 to 100 µM

Compound: CCOC(=O)c1oc2ccc(S(=O)(=O)N(CCc3ccccc3)Cc3c(F)cc(Cl)cc3F)cc2c1C [Example M4-62, ethyl 3-methyl-5-(N-(2,6-difluoro-4-chlorobenzyl)-N-phenethylsulfamoyl)benzofuran-2-carboxylate]
- IC50: 50 to 100 µM

Compound: CCOC(=O)c1oc2ccc(S(=O)(=O)N(CCc3ccccc3)Cc3ccc(-c4ccccc4)cc3)cc2c1C [Example M4-82]
- IC50: 50 to 100 µM

Compound: CCOC(=O)c1oc2ccc(S(=O)(=O)N(CCc3ccccc3)Cc3ccc(-c4ccccc4C#N)cc3)cc2c1C [Example M4-83, ethyl 3-methyl-5-(N-((2′-cyano-[1,1′-biphenyl]-4-yl)methyl)-N-phenethylsulfamoyl)benzofuran-2-carboxylate]
- IC50: 50 to 100 µM

Compound: CCOC(=O)c1oc2ccc(S(=O)(=O)N(CCc3ccccc3)Cc3ccc(-c4ccccc4C(=O)OC(C)(C)C)cc3)cc2c1C [Example M4-84, ethyl 3-methyl-5-(N-((2′-(tert-butoxycarbonyl)-[1,1′-biphenyl]-4-yl)methyl)-N-phenethylsulfamoyl)benzofuran-2-carboxylate]
- IC50: 50 to 100 µM

Compound: CCOC(=O)c1oc2ccc(S(=O)(=O)N(CCc3ccccc3)Cc3ccc(C(=O)c4ccccc4)cc3)cc2c1C [Example M4-85, ethyl 3-methyl-5-(N-(4-benzoylbenzyl)-N-phenethylsulfamoyl)benzofuran-2-carboxylate]
- IC50: 50 to 100 µM

Compound: CCOC(=O)c1oc2ccc(S(=O)(=O)N(CCc3ccccc3)c3ccccc3)cc2c1C [Example M8-10]
- IC50: 50 to 100 µM

Compound: CCOC(=O)c1oc2ccc(S(=O)(=O)N(CCc3ccccc3)c3ccc(Cc4ccccc4)cc3)cc2c1C [Example M8-11, ethyl 3-methyl-5-(N-(4-benzylphenyl)-N-phenethylsulfamoyl)benzofuran-2-carboxylate]
- IC50: 50 to 100 µM

Compound: CCOC(=O)c1oc2ccc(S(=O)(=O)N(CCc3ccccc3)c3ccc(Oc4ccccc4)cc3)cc2c1C [Example M8-12, ethyl 3-methyl-5-(N-(4-phenoxyphenyl)-N-phenethylsulfamoyl)benzofuran-2-carboxylate]
- IC50: 50 to 100 µM

Compound: CCOC(=O)c1oc2ccc(S(=O)(=O)N(CCc3ccccc3)CCc3ccccc3)cc2c1C [Example M8-13, ethyl 3-methyl-5-(N,N-diphenylethylsulfamoyl)benzofuran-2-carboxylate]
- IC50: 50 to 100 µM

Compound: CCOC(=O)c1oc2ccc(S(=O)(=O)N(CCc3ccccc3)c3ccc(N4CCOCC4)cc3)cc2c1C [Example M8-63, ethyl 3-methyl-5-(N-(4-morpholinophenyl)-N-phenethylsulfamoyl)benzofuran-2-carboxylate]
- IC50: 50 to 100 µM

Compound: CCOC(=O)c1oc2ccc(S(=O)(=O)N(CCc3ccccc3)c3ccc(N4CCN(C)CC4)cc3)cc2c1C [Example M8-64, ethyl 3-methyl-5-(N-(4-(4-methylpiperazin-1-yl)phenyl)-N-phenethylsulfamoyl)benzofuran-2-carboxylate]
- IC50: 50 to 100 µM

Compound: CCOC(=O)c1oc2ccc(S(=O)(=O)N(CCc3ccccc3)c3ccc(N4CCN(C(=O)OC(C)(C)C)CC4)cc3)cc2c1C [Example M8-65, ethyl 3-methyl-5-(N-(4-(4-(tert-butoxycarbonyl)piperazin-1-yl)phenyl)-N-phenethylsulfamoyl)benzofuran-2-carboxylate]
- IC50: 50 to 100 µM

Compound: CCOC(=O)c1oc2ccc(S(=O)(=O)N(CCc3ccccc3)c3ccc(N4CCN(C(=O)CC(C)(C)C)CC4)cc3)cc2c1C [Example M8-66, ethyl 3-methyl-5-(N-(4-(4-(3,3-dimethylbutyryl)piperazin-1-yl)phenyl)-N-phenethylsulfamoyl)benzofuran-2-carboxylate]
- IC50: 50 to 100 µM

Compound: CCCOC(=O)N1CCN(c2ccc(N(CCc3ccccc3)S(=O)(=O)c3ccc4oc(C(=O)OCC)c(C)c4c3)cc2)CC1 [Example M8-67, ethyl 3-methyl-5-(N-(4-(4-(propoxycarbonyl)piperazin-1-yl)phenyl)-N-phenethylsulfamoyl)benzo furan-2-carboxylate]
- IC50: 50 to 100 µM

Compound: CCOC(=O)c1oc2ccc(S(=O)(=O)N(CCc3ccccc3)c3ccc(N4CCN(C(C)=O)CC4)cc3)cc2c1C [Example M8-68, ethyl 3-methyl-5-(N-(4-(4-acetylpiperazin-1-yl)phenyl)-N-phenethylsulfamoyl)benzofuran-2-carboxylate]
- IC50: 50 to 100 µM
